In patent publication US20050245399A1, “Pyrazole derivatives as herbicidal compositions containing them” (ISHIHARA SANGYO KAISHA, LTD., priority 2004, published 2005):

Experiments:
Assay type in all cases: in vivo
[1] = system: barnyardgrass (Echinochiloa oryzicola: ECHOR); assay: Test Example 3 water application herbicidal activity (paddy), ECHOR; details: 63 g a.i./ha, water application under submerged condition at 0.5 leaf stage, visually observed 14th day after application; 0 = untreated control, 100 = complete kill
Procedure, shortened: (§1)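 Flooded paddy-soil pots in greenhouse; ECHOR and SCPJO sown, SAGPY tubers planted a day later, compound applied into 3–4 cm water at weeds' 0.5-leaf stage. Rice transplanted at 2-leaf stage, treated day 4 after transplanting. Visual growth control 0–100% at 14 days (weeds) and 21 days (rice) after application.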

[2] = system: barnyardgrass (Echinochloa crus-galli L.), ECHCG; assay: Test Example 2 post-emergence (foliage treatment) herbicidal activity, ECHCG
Procedure, shortened: (§2)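 Visual rating of growth control, from 0 (untreated-like) to 100 (complete kill), was done 20–23 days after post-emergence spraying. Wettable powder or emulsifiable concentrate was diluted to 500 L/ha with 0.1% (v/v) spreader. Leaf stages at application were 1.1-2.1 (ECHCG), 1.0-2.0 (DIGSA), 0.1-1.5 (AMARE) and 1.0-2 (ORYSA).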

[3] = system: crabgrass (Digitaria sanguinalis L.), DIGSA; assay: Test Example 2 post-emergence (foliage treatment) herbicidal activity, DIGSA
Procedure, shortened: as §2

[4] = system: soybean (Glycine max Merr.), GLXMA; assay: Test Example 2 post-emergence (foliage treatment) herbicidal activity, GLXMA
Procedure, shortened: (§3)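 Foliar spray of formulated compound (500 L/ha dilution water, 0.1% v/v spreader) onto young potted plants at defined leaf stages. Scored 0-100% by visual inspection 20-23 d post-spray.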

[5] = system: soybean (Glycine max Merr.): GLXMA; assay: Test Example 1 pre-emergence herbicidal activity, GLXMA; details: Rate 63 g a.i./ha, visually observed 20th to 23rd day after application
Procedure, shortened: (§4)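 Scoring was visual growth control (0 = untreated, 100 = complete kill) on days 20–23 post-application. Treatment came as a pre-emergence spray one day after sowing in upland soil, using wettable powder or emulsifiable concentrate diluted in 500 L/ha water at predetermined active-ingredient amounts.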

[6] = system: redroot pigweed (Amaranthus retroflexus L.): AMARE; assay: Test Example 1 pre-emergence herbicidal activity, AMARE; details: Rate 63 g a.i./ha, visually observed 20th to 23rd day after application
Procedure, shortened: as §4

[7] = system: corn (Zea mays L.), ZEAMX; assay: Test Example 2 post-emergence (foliage treatment) herbicidal activity, ZEAMX
Procedure, shortened: as §3

[8] = system: rice (Oryza sativa L.), ORYSA; assay: Test Example 2 post-emergence (foliage treatment) herbicidal activity, ORYSA
Procedure, shortened: as §2

[9] = system: green foxtail (Setaria viridis L.), SETVI; assay: Test Example 2 post-emergence (foliage treatment) herbicidal activity, SETVI
Procedure, shortened: as §3

[10] = system: wheat (Triticum aestivum L.): TRZAX; assay: Test Example 1 pre-emergence herbicidal activity, TRZAX; details: Rate 63 g a.i./ha, visually observed 20th to 23rd day after application
Procedure, shortened: as §4

[11] = system: green foxtail (Setaria viridis L.): SETVI; assay: Test Example 1 pre-emergence herbicidal activity, SETVI; details: Rate 63 g a.i./ha, visually observed 20th to 23rd day after application
Procedure, shortened: as §4

[12] = system: velvetleaf (Abutilon theophrasti), ABUTH; assay: Test Example 2 post-emergence (foliage treatment) herbicidal activity, ABUTH
Procedure, shortened: as §3

[13] = system: prickly sida (Sida spinosa L.): SEDSP; assay: Test Example 1 pre-emergence herbicidal activity, SIDSP; details: Rate 63 g a.i./ha, visually observed 20th to 23rd day after application
Procedure, shortened: as §4

[14] = system: barnyardgrass (Echinochloa crus-galli L.): ECHCG; assay: Test Example 1 pre-emergence herbicidal activity, ECHCG; details: Rate 63 g a.i./ha, visually observed 20th to 23rd day after application
Procedure, shortened: as §4

[15] = system: japanese ribbon wapato (Sagittaria pygmaea: SA GPY); assay: Test Example 3 water application herbicidal activity (paddy), SAGPY; details: 63 g a.i./ha, water application under submerged condition, tubers planted, visually observed 14th day after application; 0 = untreated control, 100 = complete kill
Procedure, shortened: as §1

[16] = system: velvetleaf (Abutilon theophrasti): ABUTH; assay: Test Example 1 pre-emergence herbicidal activity, ABUTH; details: Rate 63 g a.i./ha, visually observed 20th to 23rd day after application
Procedure, shortened: as §4

[17] = system: rice (Oryza sativa L.: ORYSA); assay: Test Example 3 water application herbicidal activity (paddy), transplanted rice ORYSA; details: 63 g a.i./ha, water application 4th day after transplantation of 2 leaf stage rice, visually observed 21st day after application; 0 = untreated control, 100 = complete kill
Procedure, shortened: as §1

[18] = system: rice (Oryza sativa L.): ORYSA; assay: Test Example 1 pre-emergence herbicidal activity, ORYSA; details: Rate 63 g a.i./ha, visually observed 20th to 23rd day after application
Procedure, shortened: as §4

[19] = system: prickly sida (Sida spinosa L.), SIDSP; assay: Test Example 2 post-emergence (foliage treatment) herbicidal activity, SIDSP
Procedure, shortened: as §3

[20] = system: crabgrass (Digitaria sanguinalis L.): DIGSA; assay: Test Example 1 pre-emergence herbicidal activity, DIGSA; details: Rate 63 g a.i./ha, visually observed 20th to 23rd day after application
Procedure, shortened: as §4

[21] = system: corn (Zea mays L.): ZEAMX; assay: Test Example 1 pre-emergence herbicidal activity, ZEAMX; details: Rate 63 g a.i./ha, visually observed 20th to 23rd day after application
Procedure, shortened: as §4

[22] = system: japanese bulrush (Scirpus juncoides: SCPJO); assay: Test Example 3 water application herbicidal activity (paddy), SCPJO; details: 63 g a.i./ha, water application under submerged condition at 0.5 leaf stage, visually observed 14th day after application; 0 = untreated control, 100 = complete kill
Procedure, shortened: as §1

[23] = system: wheat (Triticum aestivum L.), TRZAX; assay: Test Example 2 post-emergence (foliage treatment) herbicidal activity, TRZAX
Procedure, shortened: as §3

[24] = system: redroot pigweed (Amaranthus retroflexus L.), AMARE; assay: Test Example 2 post-emergence (foliage treatment) herbicidal activity, AMARE
Procedure, shortened: as §2

C#CCNc1c(OC(F)F)c(Cl)cc(F)c1-c1nn(C)c(OC(F)F)c1Cl [Compound 1-87]
growth controlling degrees (%) ECHOR [1]: 100% | growth controlling degree, ECHCO ([2]; 63 g a.i./ha): 100% | growth controlling degree, DIGSP ([3]; 63 g a.i./ha): 100% | growth controlling degree, GLXMA ([4]; 63 g a.i./ha): 95% | Pre-emergence Herbicidal Activity GLXMA (growth controlling degree) [5]: 40% | Pre-emergence Herbicidal Activity AMARE (growth controlling degree) [6]: 100% | growth controlling degree, ZEAMX ([7]; 63 g a.i./ha): 100% | growth controlling degree, ORYSA ([8]; 63 g a.i./ha): 70% | growth controlling degree, SETVI ([9]; 63 g a.i./ha): 100% | Pre-emergence Herbicidal Activity TRZAX (growth controlling degree) [10]: 10% | Pre-emergence Herbicidal Activity SETVI (growth controlling degree) [11]: 100% | growth controlling degree, ABUTH ([12]; 63 g a.i./ha): 100% | Pre-emergence Herbicidal Activity SIDSP (growth controlling degree) [13]: 98% | Pre-emergence Herbicidal Activity ECHCG (growth controlling degree) [14]: 100% | growth controlling degrees (%) SAGPY [15]: 100% | Pre-emergence Herbicidal Activity ABUTH (growth controlling degree) [16]: 80% | growth controlling degrees (%) ORYSA [17]: 70% | Pre-emergence Herbicidal Activity ORYSA (growth controlling degree) [18]: 60% | growth controlling degree, SIDSP ([19]; 63 g a.i./ha): 100% | Pre-emergence Herbicidal Activity DIGSP (growth controlling degree) [20]: 100% | Pre-emergence Herbicidal Activity ZEAMX (growth controlling degree) [21]: 0% | growth controlling degrees (%) SCPJO [22]: 100% | growth controlling degree, TRZAX ([23]; 63 g a.i./ha): 50% | growth controlling degree, AMARE ([24]; 63 g a.i./ha): 100%

Cn1nc(-c2c(F)cc(Cl)c(OC(F)F)c2NCc2ccccc2)c(Cl)c1OC(F)F [Compound 1-88]
growth controlling degrees (%) ECHOR [1]: 100% | growth controlling degree, ECHCO ([2]; 63 g a.i./ha): 100% | growth controlling degree, DIGSP ([3]; 63 g a.i./ha): 98% | growth controlling degree, GLXMA ([4]; 63 g a.i./ha): 60% | Pre-emergence Herbicidal Activity GLXMA (growth controlling degree) [5]: 40% | Pre-emergence Herbicidal Activity AMARE (growth controlling degree) [6]: 100% | growth controlling degree, ZEAMX ([7]; 63 g a.i./ha): 60% | growth controlling degree, ORYSA ([8]; 63 g a.i./ha): 30% | growth controlling degree, SETVI ([9]; 63 g a.i./ha): 100% | Pre-emergence Herbicidal Activity TRZAX (growth controlling degree) [10]: 0% | Pre-emergence Herbicidal Activity SETVI (growth controlling degree) [11]: 70% | growth controlling degree, ABUTH ([12]; 63 g a.i./ha): 100% | Pre-emergence Herbicidal Activity SIDSP (growth controlling degree) [13]: 80% | Pre-emergence Herbicidal Activity ECHCG (growth controlling degree) [14]: 50% | growth controlling degrees (%) SAGPY [15]: 60% | Pre-emergence Herbicidal Activity ABUTH (growth controlling degree) [16]: 70% | growth controlling degrees (%) ORYSA [17]: 20% | Pre-emergence Herbicidal Activity ORYSA (growth controlling degree) [18]: 10% | growth controlling degree, SIDSP ([19]; 63 g a.i./ha): 100% | Pre-emergence Herbicidal Activity DIGSP (growth controlling degree) [20]: 98% | Pre-emergence Herbicidal Activity ZEAMX (growth controlling degree) [21]: 0% | growth controlling degrees (%) SCPJO [22]: 80% | growth controlling degree, TRZAX ([23]; 63 g a.i./ha): 30% | growth controlling degree, AMARE ([24]; 63 g a.i./ha): 100%

COc1c(Cl)cc(F)c(-c2nn(C)c(OC(F)F)c2Cl)c1N [Compound 1-90, 3-chloro-6-[4-chloro-5-(difluoromethoxy)-1-methyl-1H-pyrazol-3-yl]-5-fluoro-2-methoxybenzenamine]
growth controlling degrees (%) ECHOR [1]: 100% | growth controlling degree, ECHCO ([2]; 31 g a.i./ha): 100% | growth controlling degree, DIGSP ([3]; 31 g a.i./ha): 100% | growth controlling degree, GLXMA ([4]; 31 g a.i./ha): 98% | Pre-emergence Herbicidal Activity GLXMA (growth controlling degree) [5]: 40% | Pre-emergence Herbicidal Activity AMARE (growth controlling degree) [6]: 100% | growth controlling degree, ZEAMX ([7]; 31 g a.i./ha): 98% | growth controlling degree, ORYSA ([8]; 31 g a.i./ha): 98% | growth controlling degree, SETVI ([9]; 31 g a.i./ha): 100% | Pre-emergence Herbicidal Activity TRZAX (growth controlling degree) [10]: 50% | Pre-emergence Herbicidal Activity SETVI (growth controlling degree) [11]: 100% | growth controlling degree, ABUTH ([12]; 31 g a.i./ha): 100% | Pre-emergence Herbicidal Activity SIDSP (growth controlling degree) [13]: 98% | Pre-emergence Herbicidal Activity ECHCG (growth controlling degree) [14]: 98% | growth controlling degrees (%) SAGPY [15]: 98% | Pre-emergence Herbicidal Activity ABUTH (growth controlling degree) [16]: 100% | growth controlling degrees (%) ORYSA [17]: 50% | Pre-emergence Herbicidal Activity ORYSA (growth controlling degree) [18]: 60% | growth controlling degree, SIDSP ([19]; 31 g a.i./ha): 100% | Pre-emergence Herbicidal Activity DIGSP (growth controlling degree) [20]: 100% | Pre-emergence Herbicidal Activity ZEAMX (growth controlling degree) [21]: 30% | growth controlling degrees (%) SCPJO [22]: 98% | growth controlling degree, TRZAX ([23]; 31 g a.i./ha): 95% | growth controlling degree, AMARE ([24]; 31 g a.i./ha): 100%

COc1c(Cl)cc(F)c(-c2nn(C)c(OC(F)F)c2Cl)c1NC(=O)C=Cc1c(Cl)cccc1Cl [Compound 1-252]
growth controlling degrees (%) ECHOR [1]: 100% | growth controlling degree, ECHCO ([2]; 63 g a.i./ha): 100% | growth controlling degree, DIGSP ([3]; 63 g a.i./ha): 95% | growth controlling degree, GLXMA ([4]; 63 g a.i./ha): 80% | Pre-emergence Herbicidal Activity GLXMA (growth controlling degree) [5]: 0% | Pre-emergence Herbicidal Activity AMARE (growth controlling degree) [6]: 100% | growth controlling degree, ZEAMX ([7]; 63 g a.i./ha): 50% | growth controlling degree, ORYSA ([8]; 63 g a.i./ha): 50% | growth controlling degree, SETVI ([9]; 63 g a.i./ha): 100% | Pre-emergence Herbicidal Activity TRZAX (growth controlling degree) [10]: 10% | Pre-emergence Herbicidal Activity SETVI (growth controlling degree) [11]: 50% | growth controlling degree, ABUTH ([12]; 63 g a.i./ha): 100% | Pre-emergence Herbicidal Activity SIDSP (growth controlling degree) [13]: 20% | Pre-emergence Herbicidal Activity ECHCG (growth controlling degree) [14]: 30% | growth controlling degrees (%) SAGPY [15]: 60% | Pre-emergence Herbicidal Activity ABUTH (growth controlling degree) [16]: 50% | growth controlling degrees (%) ORYSA [17]: 10% | Pre-emergence Herbicidal Activity ORYSA (growth controlling degree) [18]: 10% | growth controlling degree, SIDSP ([19]; 63 g a.i./ha): 100% | Pre-emergence Herbicidal Activity DIGSP (growth controlling degree) [20]: 40% | Pre-emergence Herbicidal Activity ZEAMX (growth controlling degree) [21]: 0% | growth controlling degrees (%) SCPJO [22]: 30% | growth controlling degree, TRZAX ([23]; 63 g a.i./ha): 50% | growth controlling degree, AMARE ([24]; 63 g a.i./ha): 100%
